{"source": "patent US11324209B2", "about": "“Composition to promote migration of acarids” (ACAR'UP SPRL, priority 2017, dated 2022)", "key": {"[1]": {"system": "Dermatophagoides pteronyssinus", "test": "Trap test on infested mini-mattresses with sprayed felt, mites counted via Berlese funnel", "type": "in vivo", "conditions": "felt 100% polyester; 4 ml/200 cm^2; drying + exposure 0 h + 2 h; dilution 0.00001", "protocol": "Rearing: The species studied was Dermatophagoides pteronyssinus, a dust mite common in mattresses in Eurasia. Mites are reared in Petri dishes and fed with human skin flakes (skin and whiskers obtained by cleaning electric […]). All mites were reared together under defined conditions (20° C. and 75% relative humidity). The experiments took place in a room kept at 20° C. and 40% relative humidity. Aim of the experiments: The aim was to test the trap in condition similar to the conditions that will be met by the user of the trap. Materials and methods: The mattresses were built at a smaller scale (15× reduction) than usual mattresses. These mini-mattresses are made in polyurethane and covered by a cover in cotton. […] The fabric was a felt of 20 mg/cm^2 and is a rectangle of 10 cm×20 cm. It was placed on the mini-mattress. Then the attractive solution was sprayed on the fabric with a spray bottle. The fabric was left in place on the mattress. During this time, the mites moved in the felt. It is very difficult to count directly the mites hidden in the mattress and in the fabric. Therefore, we used a Berlese funnel which is a device that is usually used to separate insects from litter. Here, we used it to separate the mites form their mattress or from the fabric. […] The jar was emptied into a Petri dish and we counted mites under binocular. […]"}, "[2]": {"system": "Dermatophagoides pteronyssinus", "test": "Binary choice test of mites between tested felt and control felt in a Petri dish", "type": "in vivo", "set-up": "key to stat Test: Stat diff: statistically different; NS: not significant", "conditions": "for Mean (binary choice of dust mites, tested felt) / stat Test: control felt + 1 μL H2O", "protocol": "Aim of the experiments: All experiments are tests of binary choice aiming to determine the preference of mites and the place where they prefer to stay (at least for 30 min).\nRearing: The species studied was Dermatophagoides pteronyssinus, a dust mite common in mattresses in Eurasia. Mites are reared in Petri dishes and fed with human skin flakes (skin and whiskers obtained by cleaning electric shavers). All mites were reared together under defined conditions (20° C. and 75% relative humidity). The experiments took place in a room kept at 20° C. and 40% relative humidity.\nMaterials and methods: A group of mites (20<n<40) was placed in the centre of a Petri dish (∅=5.5 cm) around which two semi-circles of felt were placed (see FIG. 1). The pieces of felts were 70 mg/cm^2, their thickness was 2 mm. One felt is the control (control felt); the other felt is the felt with the tested item, for instance the felt that is impregnated with a chemical compound that is tested.\nMites move spontaneously towards one of the two felts.\nObservations and counting of mites was made under binocular microscope (magnification 10*). The set-up is illuminated with a cold lamp (KL 1500 LCD, Schott®), the lighting is symmetric and the light intensity was 50 Klux. The experimental conditions were controlled in the room (T° C.: 19-22° C. and RH 40%).\nAim of the experiments: In the experiments, the tested felt was impregnated with chemicals that may be chemical acarid attractants.\nDifferent compounds were tested: Citral, limonene, α-pinene, eucalyptol, lavendulol, polysorbate 20. Dust mites were attracted to the dilute citral (10^−6) but the citral 10^−3 is repellent. The limonene (dil. 10^−5) and the α-pinene (dil. 10^−6) were attractive for mites."}, "[3]": {"test": "Shelf life and storage of the aqueous solution, citral and limonene by GC", "type": "physicochemical", "protocol": "Finding an appropriate storage material. Verifying the presence of volatile attractive molecules in fresh solutions (freshly produced, 1 day old) and stored solutions (8-12 months). Determining the quantity of those attractive molecules in said solutions, and thus allowing to follow said solutions' chemical profiles within time.\nAn aqueous solution of 3.5 ng/μL essential oil from Melissa officinalis, 3.6 ng/μL essential oil from Cymbopogon flexuosus citraliferum and 5 ng/μL polysorbate 20 was produced, bottled and stored.\nBottle material test: Two types of 100-ml bottles were tested. A plastic and an aluminum bottle were produced (20 bottles for each material). The bottles were stored 1 month, and then tested for the presence of citral.\nLong term shelf life test: 38 bottled solutions (stored 8-12 months) and 11 bottled fresh solutions (stored 1 day) were tested to compare the presence and quantity of citral and limonene.\nQuantitative measurements for citral and limonene were done by gas chromatography (GC). These are well known in the art. The essential oils were extracted from 25 ml of said bottled solution using 2 ml of n-hexane (LC-MS or HPLC grade). A sample of (1 μl) of the n-hexane extract was injected in the GC-MS equipped with a mass detector and using an OPTIMA-5MS capillary column (30 m, 0.25 mm I.D., […]). Programmed temperature elution was employed with an initial temperature of 40° C., then ramped to 280° C. at 8° C./min and held at 280° C. for 5 min. Helium was used as the carrier gas. Electron impact ionization was performed using an electron energy of 70 eV and a mass range of 40-800 m/z."}, "acarids": {"system": "acarids", "test": "Acarid migration tests of attraction enhancers alone and with limonene (description)", "type": "in vivo", "conditions": "for acarid attracting effect when used alone: low doses"}, "[4]": {"conditions": "blue felt + 1 μL, dil 10^−6, control white felt + 1 μL H2O"}, "[5]": {"conditions": "felt + 1 μL of Citral-0 (dilution not given)"}, "[6]": {"conditions": "Aluminium bottle, stored 1 month"}}, "note": "Values joined by “and” are separate entries in the source; they are usually repeats but may differ in a detail not shown here. Equal entries are not always repeated."}
{"compound": "CC(C)=CCCC(C)=CC=O", "note": "[Citral, 3,7-dimethyl-2,6-octadienal]", "values": [{"measurement": "trapped living mites", "setting": "[1]", "result": 17, "unit": "%"}, {"measurement": "Mean (compound and color)", "setting": "[2]; [4]", "result": 0.84}, {"measurement": "Test stat (compound and color)", "setting": "[2]; [4]", "result": "diff stat"}, {"measurement": "migration of the mites toward the blue felt", "setting": "[2]; blue felt in combination with citral", "result": 84, "unit": "%"}, {"measurement": "effect on dust mites", "setting": "[2]; dilution 10^−3", "result": "repellent"}, {"measurement": "effect on dust mites", "setting": "[2]; dilution 10^−6", "result": "attracted"}, {"measurement": "Mean (binary choice of dust mites, tested felt)", "setting": "[2]; [5]", "result": 0.03}, {"measurement": "stat Test", "setting": "[2]; [5]", "result": "Stat diff"}, {"measurement": "Mean (binary choice of dust mites, tested felt)", "setting": "[2]; felt + 1 μL, dil 10^−3", "result": 0.23}, {"measurement": "stat Test", "setting": "[2]; felt + 1 μL, dil 10^−3", "result": "Stat diff"}, {"measurement": "Mean (binary choice of dust mites, tested felt)", "setting": "[2]; felt + 1 μL, dilution 10^−6", "result": 0.72}, {"measurement": "stat Test", "setting": "[2]; felt + 1 μL, dilution 10^−6", "result": "Stat diff"}, {"measurement": "concentration in stored solutions (mean ± St. Dev.) / detection", "setting": "[3]; 38 solutions, 8-12 months after production", "result": "not detected"}, {"measurement": "presence in bottled solution (bottle material test)", "setting": "[3]; plastic and aluminium bottles, stored 1 month", "result": "present in each sample analysed"}]}
{"compound": "CC(C)=CCCC(C)CC=O", "note": "(centres unmarked) [Citronellal, 3,7-dimethyloct-6-en-1-al]", "values": [{"measurement": "acarid attracting effect when used alone", "setting": "acarids", "result": "mild acarid attractant"}, {"measurement": "migrated population", "setting": "acarids; tested with limonene for long contact times", "result": "~1"}]}
{"compound": "CC12CCC(CC1)C(C)(C)O2", "note": "[Eucalyptol, 1,3,3-Trimethyl-2-oxabicyclo [2.2.2.]octane]", "values": [{"measurement": "effect on dust mites", "setting": "[2]; dilution not stated", "result": "no statistically significant effect"}, {"measurement": "Mean (binary choice of dust mites, tested felt)", "setting": "[2]; felt + 1 μL, dilution 10^−6", "result": "0.48 and 0.51"}, {"measurement": "stat Test", "setting": "[2]; felt + 1 μL, dilution 10^−6", "result": "NS"}]}
{"compound": "CC(C)=CCC/C(C)=C/C=O", "note": "[Geranial]", "values": [{"measurement": "content in the bottled aqueous solution (bottle material test)", "setting": "[3]; [6]", "result": "12.56% ± 1.79"}, {"measurement": "content in the bottled aqueous solution (bottle material test)", "setting": "[3]; Plastic bottle, stored 1 month", "result": "13.03% ± 1.25"}]}
{"compound": "C=C(C)[C@H](CO)CC=C(C)C", "note": "[Lavendulol]", "values": [{"measurement": "effect on dust mites", "setting": "[2]; dilution not stated", "result": "no statistically significant effect"}, {"measurement": "Mean (binary choice of dust mites, tested felt)", "setting": "[2]; felt + 1 μL, dilution 10^−6", "result": "0.46 and 0.51"}, {"measurement": "stat Test", "setting": "[2]; felt + 1 μL, dilution 10^−6", "result": "NS"}]}
{"compound": "C=C(C)C1CC=C(C)CC1", "note": "(centres unmarked) [Limonene, 1-methyl-4-(1-methylethenyl)-cyclohexene]", "values": [{"measurement": "effect on dust mites", "setting": "[2]; dil. 10^−5", "result": "attractive"}, {"measurement": "Mean (binary choice of dust mites, tested felt)", "setting": "[2]; felt + 1 μL, dil. 10^−5", "result": 0.61}, {"measurement": "stat Test", "setting": "[2]; felt + 1 μL, dil. 10^−5", "result": "Stat diff"}, {"measurement": "Mean (binary choice of dust mites, tested felt)", "setting": "[2]; felt + 1 μL, dilution 10^−6", "result": 0.48}, {"measurement": "stat Test", "setting": "[2]; felt + 1 μL, dilution 10^−6", "result": "NS"}]}
{"compound": "C=CC(C)(O)CCC=C(C)C", "note": "(centres unmarked) [Linalool, 3,7-dimethyl-1,6-octadien-3-ol]", "values": [{"measurement": "acarid attracting effect when used alone", "setting": "acarids", "result": "did not appear to have a significant attracting effect"}, {"measurement": "effect in combination with limonene", "setting": "acarids; combined with limonene and other attractants", "result": "significant increase in the migrated population"}]}
{"compound": "CC(C)=CCC/C(C)=C\\C=O", "note": "[Neral]", "values": [{"measurement": "content in the bottled aqueous solution (bottle material test)", "setting": "[3]; [6]", "result": "12.68% ± 0.18"}, {"measurement": "content in the bottled aqueous solution (bottle material test)", "setting": "[3]; Plastic bottle, stored 1 month", "result": "12.63% ± 0.59"}]}
{"compound": "CC1=CC[C@H]2C[C@@H]1C2(C)C", "note": "[α-pinene, (15,55)-2,6,6-trimethylbicyclo[3.1.1]hept-2-ene]", "values": [{"measurement": "effect on dust mites", "setting": "[2]; dilution 10^−6", "result": "attractive"}, {"measurement": "Mean (binary choice of dust mites, tested felt)", "setting": "[2]; felt + 1 μL, dil. 10^−5", "result": 0.45}, {"measurement": "stat Test", "setting": "[2]; felt + 1 μL, dil. 10^−5", "result": "NS"}, {"measurement": "Mean (binary choice of dust mites, tested felt)", "setting": "[2]; felt + 1 μL, dilution 10^−6", "result": 0.58}, {"measurement": "stat Test", "setting": "[2]; felt + 1 μL, dilution 10^−6", "result": "Stat diff"}]}
{"compound": "polyoxyethylene (20) sorbitan monolaurate [Polysorbate 20]", "values": [{"measurement": "effect on dust mites", "setting": "[2]; dilution not stated", "result": "no statistically significant effect"}, {"measurement": "Mean (binary choice of dust mites, tested felt)", "setting": "[2]; felt + 1 μL, dilution 10^−6", "result": "0.50 and 0.53"}, {"measurement": "stat Test", "setting": "[2]; felt + 1 μL, dilution 10^−6", "result": "NS"}]}
